Results: article PMC11022729 (Advanced Science, 2024)

Experiments:
mice [1] = experiment: Von Frey filament test; format: in vivo; settings: 10 mg kg−1 i.p., hindpaws, vs vehicle
mice [2] = experiment: DNFB model of allergic contact dermatitis (persistent itch); format: in vivo, mouse; settings: i.p. after the second DNFB exposure, vs vehicle
Experimental: We next assessed the efficacy of compound 6 in the treatment of chronic itching. […] These findings are important because they indicate that Slack activators can reduce existing itching.
To induce persistent itch, a model of allergic contact dermatitis^[ [32] ^] was used. The fur on the dorsolateral aspect of the neck was shaved under brief isoflurane anesthesia. Three to four days later, the shaved skin area was exposed to 100 µL of 0.15% 2,4‐dinitrofluorobenzene (DNFB) in acetone/olive oil (3:1). After 10–11 days, the skin was shaved again, and the DNFB solution was applied 3–4 days later (i.e., two painting sessions 14 days apart). Ninety minutes after the second DNFB application, the mice were habituated to a plexiglass cylinder (30 cm diameter) for 15 min. Compound 6 hydrochloride or vehicle was administered i.p., and 15 min later, spontaneous scratching was recorded over 30 min by videotaping.

mice [3] = experiment: Histamine-induced itch behavior; format: in vivo, mouse; settings: i.p.
Description: Chloroquine‐induced scratching in mice is driven by MrgprA3 activation in the NP2 population of sensory neurons.^[ [10], [29] ^] To further explore the antipruritic efficacy of compound 6 in histamine‐independent itch, we assessed the behavioral response after s.c. injection of the peptide Ser‐Leu‐Ile‐Gly‐Arg‐Leu (SLIGRL) that evokes scratching by activation of MrgprC11,^[ [30] ^] which is expressed in the NP2 and NP3 population.^[ [10] ^] […] Moreover, compound 6 ameliorated histamine‐independent itch evoked by s.c. injection of β‐alanine that activates MrgprD^[ [31] ^] in the NP1 population of sensory neurons^[ [10] ^] (Figure 3F). In contrast, scratching induced by subcutaneous histamine was not affected by compound 6 (Figure 3G). The lack of an effect on histamine‐evoked scratching was supported by the low affinity of compound 6 for histamine H1 receptors, which was determined using a [^3H]‐pyrilamine competition binding assay in vitro (Table S3, Supporting Information). […] We also investigated the efficacy of compound 6 after peroral (p.o.) delivery.
Three to four days before the day of the experiment, the fur on the dorsolateral aspect of the neck was shaved under brief isoflurane anesthesia. […] Number of scratching bouts directed toward the nape of the neck was assessed over 30 min by videotaping. […]

mice [4] = experiment: Pulse oximetry in conscious, freely moving mice; settings: 10 mg kg−1 i.p., observation period of 30 min
Experimental: To measure cardiovascular function, a pulse oximeter (MouseOX Plus, Starr Life Sciences Corp.) was used in conscious, freely moving mice. After three consecutive days of habituating the mice to the collar clip for at least 30 min, baseline measurements were performed. […] All the datasets were sampled at 1 Hz, error‐corrected according to the manufacturer's instructions, and averaged over 300 s for each time point.

IB4-binding DRG neurons = experiment: Whole-cell current-clamp recordings on sensitized DRG neurons; format: cell-based, mouse; settings: 50 µM
human D2S receptor = target: T1, human D2S receptor (Homo sapiens, UniProt P14416); experiment: [3H]-spiperone competition binding assay, D2
T1 construct: expressed in transfected cells; host or cells: CHO
Experimental: CHO cells stably expressing human dopamine D2short (D2R) and D3 receptor (D3R) were washed and harvested using PBS. […] The cell membrane homogenate was centrifuged (20 000 × g, 20 min, 4 °C), and the resulting cell pellet was resuspended in the binding buffer. Crude membrane extracts were kept at −80 °C until use. Before starting the experiments, cell membranes were thawed, homogenized by sonication (3 × 10 s), and stored in an ice‐cold binding buffer. […] Assays were performed at least in triplicate with appropriate concentrations ranging from 0.01 nM to 100 µM of the test compound. Non‐specific binding was determined using 10 µM haloperidol. By filtering through GF/B filters pretreated with 0.3% (m/v) polyethyleneimine, the bound radioligand was separated from free radioligand using a cell harvester. Radioactivity was measured using liquid scintillation counting. Data were evaluated using the GraphPad Prism 9 software (San Diego, CA, USA) with a nonlinear regression fit.

muscarinic M1 receptor = target: T2, muscarinic M1 receptor (Homo sapiens, UniProt P11229); experiment: biochemical; settings: read-out: binding inhibition
T2 construct: purchased Eurofins Cerep P270
Experimental: (§1) Measurements were performed in duplicate.
(§2) channel, which were obtainedfrom ratspecimens).
(§3) in brackets) specific for each target.

muscarinic M3 receptor = target: T3, muscarinic M3 receptor (Homo sapiens, UniProt P20309); experiment: biochemical; settings: read-out: binding inhibition
T3 construct: purchased Eurofins Cerep P270
Experimental: as §1, §2, §3

Na+ channel = experiment: SafetyScreen44 panel; settings: 10 µM

T1 sequence (P14416 1-414 isoform P14416-2): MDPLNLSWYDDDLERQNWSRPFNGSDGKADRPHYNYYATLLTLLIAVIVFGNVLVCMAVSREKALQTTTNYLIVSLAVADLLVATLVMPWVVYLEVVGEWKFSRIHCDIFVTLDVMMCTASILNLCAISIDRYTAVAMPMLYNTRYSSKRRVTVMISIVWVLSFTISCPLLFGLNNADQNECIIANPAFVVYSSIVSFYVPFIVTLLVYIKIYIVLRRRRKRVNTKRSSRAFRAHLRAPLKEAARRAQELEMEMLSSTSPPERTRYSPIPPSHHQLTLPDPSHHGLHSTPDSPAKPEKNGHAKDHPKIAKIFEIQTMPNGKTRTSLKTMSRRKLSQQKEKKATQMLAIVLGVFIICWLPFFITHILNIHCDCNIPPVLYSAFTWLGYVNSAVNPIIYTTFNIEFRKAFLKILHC
T3 sequence (P20309 whole entry): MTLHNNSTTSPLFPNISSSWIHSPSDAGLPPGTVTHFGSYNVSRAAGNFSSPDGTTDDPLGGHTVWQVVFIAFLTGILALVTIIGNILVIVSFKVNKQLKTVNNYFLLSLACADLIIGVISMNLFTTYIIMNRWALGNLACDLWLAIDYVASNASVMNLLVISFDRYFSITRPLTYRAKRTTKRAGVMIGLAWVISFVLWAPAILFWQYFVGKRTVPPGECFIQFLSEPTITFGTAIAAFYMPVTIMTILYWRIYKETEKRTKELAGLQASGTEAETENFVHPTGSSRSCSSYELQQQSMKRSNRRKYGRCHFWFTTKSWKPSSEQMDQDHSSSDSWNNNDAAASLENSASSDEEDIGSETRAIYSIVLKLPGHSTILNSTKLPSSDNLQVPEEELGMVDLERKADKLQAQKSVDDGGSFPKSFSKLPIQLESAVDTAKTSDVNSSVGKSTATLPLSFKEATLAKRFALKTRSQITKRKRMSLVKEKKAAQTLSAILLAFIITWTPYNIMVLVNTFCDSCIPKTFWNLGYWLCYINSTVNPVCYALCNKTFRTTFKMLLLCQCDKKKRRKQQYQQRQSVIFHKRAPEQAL
T2 sequence (P11229 whole entry): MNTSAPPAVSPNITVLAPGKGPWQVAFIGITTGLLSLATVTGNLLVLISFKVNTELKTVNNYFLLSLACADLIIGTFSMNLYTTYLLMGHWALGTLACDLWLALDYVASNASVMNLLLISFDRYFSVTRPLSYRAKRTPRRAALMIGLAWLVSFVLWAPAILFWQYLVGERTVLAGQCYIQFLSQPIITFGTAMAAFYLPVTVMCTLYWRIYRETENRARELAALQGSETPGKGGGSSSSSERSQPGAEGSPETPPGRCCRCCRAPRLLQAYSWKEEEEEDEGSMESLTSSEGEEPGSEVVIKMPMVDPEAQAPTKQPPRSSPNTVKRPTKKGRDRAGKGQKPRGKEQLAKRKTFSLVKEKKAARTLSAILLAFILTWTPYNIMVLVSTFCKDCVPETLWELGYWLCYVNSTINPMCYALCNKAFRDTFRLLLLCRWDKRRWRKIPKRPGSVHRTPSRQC

## O=C(O)COCCN1CCN(C2=Nc3ccccc3Oc3ccc(Cl)cc32)CC1 [Compound 6]
Mice [1]
  mechanical sensitivity (von Frey filament test): Neither mechanical nor thermal sensitivity was altered
Mice [2]
  number of head shakes: significantly reduced
  number of scratching bouts: significantly reduced
Mice [3]
  scratching induced by subcutaneous histamine: not affected
Mice [4]
  breath rate: did not affect
  heart rate: did not affect
IB4-binding DRG neurons; cells with recorded APs
  AP amplitude: Neither compound 6 nor the vehicle had a significant effect
  AP duration at 90% repolarization (APD90): Neither compound 6 nor the vehicle had a significant effect
IB4-binding DRG neurons; current injection 200–950 pA
  resting membrane potential (RMP): Neither compound 6 nor the vehicle significantly affected
IB4-binding DRG neurons; current injection 200–950 pA, after inflammatory soup
  number of AP fired: profound decrease
IB4-binding DRG neurons; in the 7 cells with recorded APs
  rheobase compared to baseline: visibly, but not significantly, increased
IB4-binding DRG neurons; small currents (0–220 pA), vehicle 11 of 11
  cells that elicited APs: 7 of 13
Human D2S receptor
  fold lower affinity against D2 as compared to loxapine: ≈ 40 fold
Human D2S receptor; mean [CI 95%]
  Ki: 1280 nM

## CN1CCN(C2=Nc3ccccc3Oc3ccc(Cl)cc32)CC1 [Loxapine, reference compound]
Muscarinic M1 receptor
  inhibition at 10 µM: > 50%
Muscarinic M3 receptor
  inhibition at 10 µM: > 50%
Na+ channel
  binding inhibition: higher than 50%
